Experimental data from US6960574B2, “Antagonists of RF-amide neuropeptides” (University of Florida, priority 2002, dated 2005).
Peptide text beside a SMILES is read from it. * marks the point of attachment. Dansyl = CN(C)c1cccc2c(S(=O)(=O)*)cccc12

Test system: receptor labeled by the radioiodinated analogue of 1 (4, [125I]-YLFQPQRF-NH2); neuropeptide FF receptor
Assay: Competitive radioligand binding against 4 ([125I]Y8F-amide)
Conditions: mixture-based positional scanning; difference from averaged radioligand displacement of whole library (0); about 80 a.u. = 10-fold change in Ki

| SMILES | Relative Binding Index (RBI) [a.u.] |
| --- | --- |
| CN(C)c1cccc2c(S(=O)(=O)N[C@@H](CO)C(=O)N[C@@H](Cc3c[nH]cn3)C(=O)N[C@@H](CCCNC(=N)N)C(N)=O)cccc12 [Dansyl-SHR-amide] (Dansyl-Ser-His-Arg-NH2) | 11 |
| CC[C@H](C)[C@H](NC(=O)[C@H](CO)NS(=O)(=O)c1cccc2c(N(C)C)cccc12)C(=O)N[C@@H](CCCNC(=N)N)C(N)=O [Dansyl-SIR-amide] (Dansyl-Ser-Ile-Arg-NH2) | 23 |
| CN(C)c1cccc2c(S(=O)(=O)N[C@@H](CO)C(=O)N[C@@H](CCCCN)C(=O)N[C@@H](CCCNC(=N)N)C(N)=O)cccc12 [Dansyl-SKR-amide] (Dansyl-Ser-Lys-Arg-NH2) | 14 |
| CC(C)C[C@H](NC(=O)[C@H](CO)NS(=O)(=O)c1cccc2c(N(C)C)cccc12)C(=O)N[C@@H](CCCNC(=N)N)C(N)=O [Dansyl-SLR-amide] (Dansyl-Ser-Leu-Arg-NH2) | 8 |
| CSCC[C@H](NC(=O)[C@H](CO)NS(=O)(=O)c1cccc2c(N(C)C)cccc12)C(=O)N[C@@H](CCCNC(=N)N)C(N)=O [Dansyl-SMR-amide] (Dansyl-Ser-Met-Arg-NH2) | 16 |
| CN(C)c1cccc2c(S(=O)(=O)N[C@@H](CO)C(=O)N[C@@H](CC(N)=O)C(=O)N[C@@H](CCCNC(=N)N)C(N)=O)cccc12 [Dansyl-SNR-amide] (Dansyl-Ser-Asn-Arg-NH2) | 18 |
| CN(C)c1cccc2c(S(=O)(=O)N[C@@H](CO)C(=O)N3CCC[C@H]3C(=O)N[C@@H](CCCNC(=N)N)C(N)=O)cccc12 [Dansyl-SPR-amide] (Dansyl-Ser-Pro-Arg-NH2) | 20 |
| CN(C)c1cccc2c(S(=O)(=O)N[C@@H](CO)C(=O)N[C@@H](CCC(N)=O)C(=O)N[C@@H](CCCNC(=N)N)C(N)=O)cccc12 [Dansyl-SQR-amide] (Dansyl-Ser-Gln-Arg-NH2) | 30 |
| CN(C)c1cccc2c(S(=O)(=O)N[C@@H](CO)C(=O)N[C@@H](CCCNC(=N)N)C(=O)N[C@@H](CCCNC(=N)N)C(N)=O)cccc12 [Dansyl-SRR-amide] (Dansyl-Ser-Arg-Arg-NH2) | 15 |
| CN(C)c1cccc2c(S(=O)(=O)N[C@@H](CO)C(=O)N[C@@H](CO)C(=O)N[C@@H](CCCNC(=N)N)C(N)=O)cccc12 [Dansyl-SSR-amide] (Dansyl-Ser-Ser-Arg-NH2) | 37 |
| C[C@@H](O)[C@H](NC(=O)[C@H](CO)NS(=O)(=O)c1cccc2c(N(C)C)cccc12)C(=O)N[C@@H](CCCNC(=N)N)C(N)=O [Dansyl-STR-amide] (Dansyl-Ser-Thr-Arg-NH2) | 22 |
| CC(C)[C@H](NC(=O)[C@H](CO)NS(=O)(=O)c1cccc2c(N(C)C)cccc12)C(=O)N[C@@H](CCCNC(=N)N)C(N)=O [Dansyl-SVR-amide] (Dansyl-Ser-Val-Arg-NH2) | 12 |
| CN(C)c1cccc2c(S(=O)(=O)N[C@@H](CO)C(=O)N[C@@H](Cc3c[nH]c4ccccc34)C(=O)N[C@@H](CCCNC(=N)N)C(N)=O)cccc12 [Dansyl-SWR-amide] (Dansyl-Ser-Trp-Arg-NH2) | 25 |
| CN(C)c1cccc2c(S(=O)(=O)N[C@@H](CO)C(=O)N[C@@H](Cc3ccc(O)cc3)C(=O)N[C@@H](CCCNC(=N)N)C(N)=O)cccc12 [Dansyl-SYR-amide] (Dansyl-Ser-Tyr-Arg-NH2) | 15 |
| C[C@H](NC(=O)[C@@H](NS(=O)(=O)c1cccc2c(N(C)C)cccc12)[C@@H](C)O)C(=O)N[C@@H](CCCNC(=N)N)C(N)=O [Dansyl-TAR-amide] (Dansyl-Thr-Ala-Arg-NH2) | −58 |
| C[C@@H](O)[C@H](NS(=O)(=O)c1cccc2c(N(C)C)cccc12)C(=O)N[C@@H](CC(=O)O)C(=O)N[C@@H](CCCNC(=N)N)C(N)=O [Dansyl-TDR-amide] (Dansyl-Thr-Asp-Arg-NH2) | −27 |
| C[C@@H](O)[C@H](NS(=O)(=O)c1cccc2c(N(C)C)cccc12)C(=O)N[C@@H](CCC(=O)O)C(=O)N[C@@H](CCCNC(=N)N)C(N)=O [Dansyl-TER-amide] (Dansyl-Thr-Glu-Arg-NH2) | −8 |
| CC(O)C(NS(=O)(=O)c1cccc2c(N(C)C)cccc12)C(=O)NC(Cc1ccccc1)C(=O)NC(CCCNC(=N)N)C(N)=O (stereo not drawn) [Dansyl-TFR-amide] (Dansyl-Thr-Phe-Arg-NH2; configuration not given here) | −10 |
| C[C@@H](O)[C@H](NS(=O)(=O)c1cccc2c(N(C)C)cccc12)C(=O)NCC(=O)N[C@@H](CCCNC(=N)N)C(N)=O [Dansyl-TGR-amide] (Dansyl-Thr-Gly-Arg-NH2) | −3 |
| C[C@@H](O)[C@H](NS(=O)(=O)c1cccc2c(N(C)C)cccc12)C(=O)N[C@@H](Cc1c[nH]cn1)C(=O)N[C@@H](CCCNC(=N)N)C(N)=O [Dansyl-THR-amide] (Dansyl-Thr-His-Arg-NH2) | −14 |
| CC[C@H](C)[C@H](NC(=O)[C@@H](NS(=O)(=O)c1cccc2c(N(C)C)cccc12)[C@@H](C)O)C(=O)N[C@@H](CCCNC(=N)N)C(N)=O [Dansyl-TIR-amide] (Dansyl-Thr-Ile-Arg-NH2) | −2 |
| C[C@@H](O)[C@H](NS(=O)(=O)c1cccc2c(N(C)C)cccc12)C(=O)N[C@@H](CCCCN)C(=O)N[C@@H](CCCNC(=N)N)C(N)=O [Dansyl-TKR-amide] (Dansyl-Thr-Lys-Arg-NH2) | −11 |

Now from value to compound:

| Relative Binding Index (RBI) [a.u.] | SMILES |
| --- | --- |
| −17 | CC(C)C[C@H](NC(=O)[C@@H](NS(=O)(=O)c1cccc2c(N(C)C)cccc12)[C@@H](C)O)C(=O)N[C@@H](CCCNC(=N)N)C(N)=O [Dansyl-TLR-amide] (Dansyl-Thr-Leu-Arg-NH2) |
| −9 | CSCC[C@H](NC(=O)[C@@H](NS(=O)(=O)c1cccc2c(N(C)C)cccc12)[C@@H](C)O)C(=O)N[C@@H](CCCNC(=N)N)C(N)=O [Dansyl-TMR-amide] (Dansyl-Thr-Met-Arg-NH2) |
| −7 | C[C@@H](O)[C@H](NS(=O)(=O)c1cccc2c(N(C)C)cccc12)C(=O)N[C@@H](CC(N)=O)C(=O)N[C@@H](CCCNC(=N)N)C(N)=O [Dansyl-TNR-amide] (Dansyl-Thr-Asn-Arg-NH2) |
| −5 | C[C@@H](O)[C@H](NS(=O)(=O)c1cccc2c(N(C)C)cccc12)C(=O)N1CCC[C@H]1C(=O)N[C@@H](CCCNC(=N)N)C(N)=O [Dansyl-TPR-amide] (Dansyl-Thr-Pro-Arg-NH2) |
| 5 | C[C@@H](O)[C@H](NS(=O)(=O)c1cccc2c(N(C)C)cccc12)C(=O)N[C@@H](CCC(N)=O)C(=O)N[C@@H](CCCNC(=N)N)C(N)=O [Dansyl-TQR-amide] (Dansyl-Thr-Gln-Arg-NH2) |
| −10 | C[C@@H](O)[C@H](NS(=O)(=O)c1cccc2c(N(C)C)cccc12)C(=O)N[C@@H](CCCNC(=N)N)C(=O)N[C@@H](CCCNC(=N)N)C(N)=O [Dansyl-TRR-amide] (Dansyl-Thr-Arg-Arg-NH2) |
| 12 | C[C@@H](O)[C@H](NS(=O)(=O)c1cccc2c(N(C)C)cccc12)C(=O)N[C@@H](CO)C(=O)N[C@@H](CCCNC(=N)N)C(N)=O [Dansyl-TSR-amide] (Dansyl-Thr-Ser-Arg-NH2) |
| −3 | C[C@@H](O)[C@H](NC(=O)[C@@H](NS(=O)(=O)c1cccc2c(N(C)C)cccc12)[C@@H](C)O)C(=O)N[C@@H](CCCNC(=N)N)C(N)=O [Dansyl-TTR-amide] (Dansyl-Thr-Thr-Arg-NH2) |
| −13 | CC(C)[C@H](NC(=O)[C@@H](NS(=O)(=O)c1cccc2c(N(C)C)cccc12)[C@@H](C)O)C(=O)N[C@@H](CCCNC(=N)N)C(N)=O [Dansyl-TVR-amide] (Dansyl-Thr-Val-Arg-NH2) |
| 0 | C[C@@H](O)[C@H](NS(=O)(=O)c1cccc2c(N(C)C)cccc12)C(=O)N[C@@H](Cc1c[nH]c2ccccc12)C(=O)N[C@@H](CCCNC(=N)N)C(N)=O [Dansyl-TWR-amide] (Dansyl-Thr-Trp-Arg-NH2) |
| −10 | C[C@@H](O)[C@H](NS(=O)(=O)c1cccc2c(N(C)C)cccc12)C(=O)N[C@@H](Cc1ccc(O)cc1)C(=O)N[C@@H](CCCNC(=N)N)C(N)=O [Dansyl-TYR-amide] (Dansyl-Thr-Tyr-Arg-NH2) |
| −53 | CC(C)[C@H](NS(=O)(=O)c1cccc2c(N(C)C)cccc12)C(=O)N[C@@H](C)C(=O)N[C@@H](CCCNC(=N)N)C(N)=O [Dansyl-VAR-amide] (Dansyl-Val-Ala-Arg-NH2) |
| −22 | CC(C)[C@H](NS(=O)(=O)c1cccc2c(N(C)C)cccc12)C(=O)N[C@@H](CC(=O)O)C(=O)N[C@@H](CCCNC(=N)N)C(N)=O [Dansyl-VDR-amide] (Dansyl-Val-Asp-Arg-NH2) |
| −4 | CC(C)[C@H](NS(=O)(=O)c1cccc2c(N(C)C)cccc12)C(=O)N[C@@H](CCC(=O)O)C(=O)N[C@@H](CCCNC(=N)N)C(N)=O [Dansyl-VER-amide] (Dansyl-Val-Glu-Arg-NH2) |
| −6 | CC(C)[C@H](NS(=O)(=O)c1cccc2c(N(C)C)cccc12)C(=O)N[C@@H](Cc1ccccc1)C(=O)N[C@@H](CCCNC(=N)N)C(N)=O [Dansyl-VFR-amide] (Dansyl-Val-Phe-Arg-NH2) |
| 1 | CC(C)[C@H](NS(=O)(=O)c1cccc2c(N(C)C)cccc12)C(=O)NCC(=O)N[C@@H](CCCNC(=N)N)C(N)=O [Dansyl-VGR-amide] (Dansyl-Val-Gly-Arg-NH2) |
| −10 | CC(C)[C@H](NS(=O)(=O)c1cccc2c(N(C)C)cccc12)C(=O)N[C@@H](Cc1cnc[nH]1)C(=O)N[C@@H](CCCNC(=N)N)C(N)=O [Dansyl-VHR-amide] (Dansyl-Val-His-Arg-NH2) |
| 2 | CC[C@H](C)[C@H](NC(=O)[C@@H](NS(=O)(=O)c1cccc2c(N(C)C)cccc12)C(C)C)C(=O)N[C@@H](CCCNC(=N)N)C(N)=O [Dansyl-VIR-amide] (Dansyl-Val-Ile-Arg-NH2) |
